Patent publication US7531355B2, “Methods and compositions for smooth muscle reconstruction” (The Regents of the University of California, priority 2005, dated 2009)

Experiments:
undifferentiated PLA = assay: Smooth muscle contraction in vitro assay (collagen gel), control cells; format: cell-based
Experimental: (§1) A mixture of 50% collagen solution (Vitrogen), 25% 4×DMEM with supplemented sodium bicarbonate prepared from powder (Gibco), ˜5 μl volume of glass bead (120-150 μm soda lime microspheres in light blue color) were added to approximately 5×10^5 cells (smooth muscle cells differentiated from ADSCs, although other cell types were utilized as negative controls) to a total volume of 400 μl was prepared on ice. The slurry was transferred to a 24-well plate (with calculated resulting thickness of around 2 mm) and the gel was allowed to polymerize in the 37° C. incubator overnight. Appropriate cell culture medium was added the next day to supplement cell growth, e,.g., smooth muscle medium was added to smooth muscle cells or adipogenic medium was added to adipose cells. The gel was incubated again for another night.
(§2) The following day (2 days after casting the gel) the gel was partially released (i.e., about 280° around the circumference of the well) from the tissue culture well by gently pulling the gel away from the side of the well with a pipette. Carbachol (an acetylcholine agonist) was added to the partially released gel. Response to addition of the drug was monitored by use of a microscope connected to a real-time camera.
(§3) Murine NIH 3T3 (fibroblasts ) or undifferentiated PLA cells were run concurrently as controls.
(§4) Pictures were taken before the gel was released at marked fields. […]

fibroblasts (NIH 3T3) = assay: as above; format: cell-based, Murine; details: control cells NIH 3T3
Experimental: as §1, §2, §3, §4

[1] = tested on: smooth muscle cells differentiated from ADSCs; assay: Smooth muscle contraction in vitro assay (collagen gel); format: cell-based
Experimental: as §1, §2
Pictures were taken before the gel was released at marked fields. The gel was released with a pipette tip about 280° around the wall of the well. […]

Compound	contractile response of gel to the agent (undifferentiated PLA)	contractile response of gel to the agent (fibroblasts (NIH 3T3))	contractile response of gel to the agent ([1]; agent added to partially released gel)	effect on contractile response to isoproterenol ([1]; added beforehand)
C[N+](C)(C)CCOC(N)=O [Carbachol]	very weak response	very weak response	–	–
CNC[C@H](O)c1cccc(O)c1 [Phenylephrine]	–	–	shown to contract gels	–
CC(C)NCC(O)COc1cccc2ccccc12 (stereo not drawn) [Propranolol]	–	–	–	reduced the contractile response
CC(C)NCC(O)c1ccc(O)c(O)c1 (stereo not drawn) [isoproterenol]	no response	no response	–	–
